# Measurements: patent US20240299383A1, “IMMUNOMODULATOR COMPOSITION COMPRISING AZVUDINE” (HENAN GENUINE BIOTECH CO., LTD., priority 2023, published 2024)
# Tests used:
# [1] = tested on: CT26 cells; assay: Anti-tumor effect of azvudine in CT26 tumor-bearing mice with normal immune function; assay type: in vivo, BALB/c mouse; settings: mice with normal immunity (BALB/c), o.p., QD×2 W
# [2] = tested on: CT26 cells; assay: Anti-tumor effect of azvudine in CT-26 tumor-bearing mice with severe immunodeficiency; assay type: in vivo; settings: mice with severe immunodeficiency (B-NDG), o.p., QD×2 W
# [3] = tested on: immune cells in CT26 tumor; assay: Infiltration of immune cells in tumor by flow cytometry, CT26 tumor model; assay type: in vivo, BALB/c mice
# Protocol: Tumor tissue was washed once with PBS, and removed of fat. The tumor tissue was quickly cut into small pieces. The chopped tumor tissue was transferred to a tube C containing 5 mL of digestive enzyme mixed solution. The tube C was put in a tissue processor, the tissue fragments were ensured to be submerged in the digestive enzyme, and the program m_imptumor_01_01 was performed. The sample was put in a water bath shaker at 37° C. for 30 min of digestion. After the digestion was completed, the program m_imptumor_01_01 was performed again, and then an appropriate amount of PBS containing 2% fetal bovine serum was added to terminate the digestion. The obtained mixture was filtered with a […] cell mesh to remove residual tissue, and washed with PBS. An appropriate volume of PBS was added according to the amount of cell precipitate to resuspend cells. Then the cells were gently blown evenly, and counted with a hemocytometer. An appropriate amount of cells were taken out and stained with antibodies.
# The cells were resuspended with PBS to a concentration of 1×10^6 cells/100 μL. The cell suspension was added to a 96-well V-bottom plate at 100 μL per well. The plate was centrifuged at 450 g at 4° C. for 5 min, and the supernatant solution was discarded. The cells were resuspended with 100 μL of prepared Zombie NIR Live/Dead solution, then cultured at 4° C. in the dark for 30 min, and then washed twice with PBS. Then the cells in each well were resuspended with 50 μL of staining buffer containing Fc receptor inhibitor (1 μL of Fc receptor inhibitor+49 μL of staining buffer), and cultured at 4° C. in the dark for 5 min. Then the cells in each well were resuspended with 50 μL of Brilliant staining buffer containing Pacific Orange CD8, BV605 MHCII, BV650 CD25, BV750 CD45, BV785 Ly6C, AF488 CD11c, AF532 CD11b, PE-DZL594 CD49b, APC Ly6G, APC-Cy5.5 CD4, APC-Cy7 CD13, BV42 CD69 (or an isotype control antibody thereof), and cultured at 4° C. in the dark for 30 min. After staining was completed, the cells were washed twice with 200 μL of staining buffer.
# The cells in each well were resuspended with 100 μL of Fixation/Permeabilization, and cultured at 4° C. in the dark for 30 min. After permeabilization was completed, the cells were washed twice with 200 μL of Permeabilization buffer. The cells were resuspended with 100 μL of Permeabilization buffer containing Fc receptor inhibitor, and cultured at 4° C. in the dark for 5 min. Then the cells were directly added with intracellular antibodies PE-Cy7 FoxP3 and PE Ki67 (or an isotype control antibody thereof), and cultured at 4° C. in the dark for 30 min. After staining was completed, the cells were washed twice with 200 μL of Permeabilization buffer, and resuspended with 200 μL of staining buffer. The flow cytometry detection was completed within 24 h.
# The flow cytometry data was analyzed using FlowJo, SPSS and Graphpad Prism softwares, specifically including the following: • 1) The proportion of CD45+ cells in living cells of tumor tissue; • 2) The ratio of T, CD4+T, CD8+T, Treg, Myeloid, DC, NK, PMN-MDSC and M-MDSC in CD45+ cells; • 3) The ratio of CD8+T to Treg and the ratio of CD4+Teff to Treg; • 4) The CD69 positive rate and median fluorescence intensity (MFI) in T, CD4+T, and CD8+T cells; • 5) The Ki67 positive rate and median fluorescence intensity (MFI) in T, CD4+T, CD8+ and T cells; • 6) The number of T, CD4+T, CD8+T, Treg, Myeloid, DC, NK, PMN-MDSC, M-MDSC, and white blood cells per 100 mg of tumor tissue;
# In this experiment, the CT26 tumor model was established on BALB/c mice, and the mice were treated with azvudine at different doses (0.25 mg/kg, 1 mg/kg). Tumor samples were collected. Then the proportion of each immune cell subset and the activation and proliferation of T, CD4+T and CD8+T were detected by flow cytometry.
# [4] = tested on: cytokines (GM-CSF, MCP-1, IFNγ, IFNβ, TNFa, IL2, IL4, IL8, IL10); assay: Release level of cytokines in serum and tumor tissue by MSD method, CT26 tumor model; assay type: in vivo, BALB/c mice; settings: vs Vehicle
# Protocol: CT26 cells were cultured in RPMI 1640 medium containing 10% fetal bovine serum at 37° C. in a 5% CO2 incubator. The cells were passaged routinely once a week. When the cell saturation reached 80%-90% and the cell number achieved the requirement, the cells were collected, counted and inoculated.
# Animals were BALB/c female mice, 8 weeks old and weighing 18.5-22.9 g, which were provided by Shanghai Lingchang Biotechnology Co., Ltd.
# 0.1 mL (0.3×10^6) of CT26 cells were subcutaneously inoculated into each mouse. When the average tumor volume reached 101 mm^3, the mice were grouped and administered.
# • 1) Quick-frozen tissue samples were taken out from the −80° C. refrigerator. • 2) On dry ice, part of the tumor tissue (about 50-100 mg) were cut out, and put into a 2 mL centrifuge tube with steel beads. Then the tube was added with 350 μL of cell lysis solution RIPA (in which 1% protease inhibitor and phosphatase inhibitor had been freshly added). • 3) The tissue was crushed with Tissue grinder at the highest frequency for 5 min. • 4) The tissue lysate was put on ice for 30 min. • 5) The tissue lysate was centrifuged at 12,000 rpm at 4° C. for 10 min. The supernatant was collected and put into a new 1.5 mL centrifuge tube.
# • 1) The protein extract was diluted 50 times (2 μL of protein extract+98 μL of RIPA cell lysis buffer). • 2) Standard product and diluted samples were added at 10 μL/well in a 96-well transparent plate. • 3) Preparation of working solution: Reagent A and reagent B were mixed at a ratio of 50:1. 200 μL of the mixture was added to each well. • 4) The 96-well transparent plate was incubated at 37° C. for 30 min. • 5) The OD value at 562 nm was detected by a microplate reader, and then the tumor protein was quantified according to the OD result. • 6) The total protein concentration of the tumor samples was uniformly 2 mg/mL. • 7) The protein was quantified with BCA quantification kit. • 8) According to the quantitation results, the sample protein concentration was uniformly diluted to 2 μg/μL with RIPA lysis solution. • 9) MSD experiment was performed or the diluted samples were stored in a −80° C. refrigerator.
# • 1) Preparation of standard product: 250 μL of Diluent 43 diluent was added to the standard product. The mixture was mixed well, and left to stand at room temperature for 15-30 min, and serially diluted by 4 times using Diluent 43 to obtain standard products Nos. 1-7. Diluent 43 was standard product No. 8. • 2) Sample dilution: The samples were diluted with Diluent 43. • 3) Antibody dilution: 100× antibody stock solution was diluted to 1×. • 4) Buffer preparation: 5× buffer was diluted to 1× with deionized water.
# • 1) 200 μL of each biotin antibody was added to 300 μL of the designated linker. The resulting mixture was stirred by vortex and incubated at room temperature for 30 min. • 2) 200 μL of stop solution was added. The resulting mixture was stirred by vortex and incubated at room temperature for 30 min. • 3) 600 μL of each U-PLEX Linker-Coupled antibody solution (10×) was mixed into a tube and mixed by vortex. • 4) When the number of binding antibodies was less than 10, the solution was supplemented to 6 ml with stop solution. • 5) 50 μL of multiplex coating solution was added to each well. The plate was sealed with an adhesive board, and shaken at room temperature for 1 h. • 6) The wells were washed 3 times with 1× MSD wash Buffer at 150 μL/well. • 7) Standard product and detection antibody solutions were prepared. • 8) 25 μL of Diluent 43 was added to each well. • 9) 25 μL of prepared standard product, tissue sample or serum sample was added to each well. The plate was sealed with an adhesive board, and incubated at room temperature for 1 h. • 10) The wells were washed 3 times with 1× MSD wash Buffer at 150 μL/well. • 11) 50 μL of detection antibody solution was added to each well. […]
# [5] = tested on: murine colorectal cancer CT-26 cell line; assay: Azvudine in combination with PD-1 antibody in murine colorectal cancer CT-26 homograft tumor model; assay type: in vivo, BALB/c female mouse; settings: for T/C (%) / TGI(%): tumor volume on the 17th day; for T/Cweight (%): 17th day
# Description: Further, the anti-tumor effect of azvudine in combination with PD-1 antibody on BALB/c female mouse subcutaneously xenografted with murine colorectal cancer CT-26 cell line animal model was studied.
# [6] = tested on: B-cell lymphoma A20; assay: Azvudine in combination with PD-1 antibody in B-cell lymphoma A20 tumor-bearing mouse model; assay type: in vivo
# Description: The effect of azvudine in combination with PD-1 antibody on the B-cell lymphoma A20 tumor-bearing mouse model was further studied.
# [7] = 0.25 mg/kg and 1 mg/kg PO QD × 5D, dose-dependent
# [8] = after administration, 0.25 and 1 mg/kg, vs control group
# [9] = high-dose group (1 mg/kg PO QD × 5D)
# [10] = tumor tissue, 0.25 mg/kg and 1 mg/kg PO QD × 5D, certain dose-dependency
smiles,measurement,setting,value
[N-]=[N+]=N[C@]1(CO)O[C@@H](n2ccc(N)nc2=O)[C@@H](F)[C@@H]1O [Azvudine],IR(%),[1]; 0.25 mpk,57.5%
same,TGI(%),[1]; 0.25 mpk,63%
same,IR(%),[1]; 1 mpk,84.5%
same,TGI(%),[1]; 1 mpk,94%
same,IR(%),[2]; 0.25 mpk,9.4%
same,TGI(%),[2]; 0.25 mpk,13%
same,IR(%),[2]; 1 mpk,49.2%
same,TGI(%),[2]; 1 mpk,53%
same,infiltration of immune cells in the tumor,"[3]; 0.25 mg/kg and 1 mg/kg PO QD × 5D, vs control group",increased
same,infiltration of CD8+T cells in the tumor,[3]; [7],increase
same,infiltration of NK cells in the tumor,[3]; [7],increase
same,other cell subsets after administration,"[3]; 0.25 and 1 mg/kg, compared with the control group",no significant change
same,"expression level of CD69 in T, CD4+ T, and CD8+ T cells",[3]; [8],no significant difference
same,"expression level of Ki67 in T, CD4+ T, and CD8+ T cells",[3]; [8],no significant difference
same,proportion of M-MDSC cells,[3]; [9],significant reduction
same,proportion of PMN-MDSC cells,[3]; [9],significant reduction
same,proportion of myeloid cells,[3]; [9],significantly reduced
same,ratio of CD4Teff/Treg,[3]; [9],significantly increased
same,ratio of CD8T/Treg,[3]; [9],significantly increased
same,"CD8T/Treg and CD4Teff/Treg ratios and proportion of myeloid, M-MDSC, PMN-MDSC cells","[3]; low-dose group (0.25 mg/kg PO QD × 5D), compared with high-dose group",same trend
same,release of MCP-1,"[4]; serum samples, 0.25 mg/kg PO QD × 5D, 2 h after last administration",significantly reduced
same,release of IL8,"[4]; serum samples, 0.25 mg/kg and 1 mg/kg PO QD × 5D",significantly reduced
same,other cytokines,"[4]; serum samples, 0.25 mg/kg and 1 mg/kg",no significant change
same,release of IFN-β,[4]; [10],decreased
same,release of IFNγ,[4]; [10],increased
same,release of TNFα,[4]; [10],increased
same,Tumor weight (mg) (On the 17th day),[5]; Azvudine 0.25 mg/kg,848 ± 210 mg
same,Tumor volume (mm^3) on the 17th day,[5]; Azvudine 0.25 mg/kg p.o. QD × 18 days,768 ± 74 mm^3
same,Tumor volume (mm^3) on the 17th day,"[5]; Azvudine 0.25 mg/kg p.o. QD × 18 days, listed as azvudine",768 mm^3
same,T/C (%),[5]; Azvudine 0.25 mg/kg p.o.,39.18%
same,TGI(%),[5]; Azvudine 0.25 mg/kg p.o.,63.26%
same,T/Cweight (%),[5]; Azvudine 0.25 mg/kg,42.52%
same,Tumor weight (mg) (On the 17th day),[5]; Azvudine 0.5 mg/kg,386 ± 256 mg
same,Tumor volume (mm^3) on the 17th day,[5]; Azvudine 0.5 mg/kg p.o. QD × 18 days,347 ± 77 mm^3
same,Tumor volume (mm^3) on the 17th day,"[5]; Azvudine 0.5 mg/kg p.o. QD × 18 days, listed as azvudine",347 mm^3
same,T/C (%),[5]; Azvudine 0.5 mg/kg p.o.,17.63%
same,TGI(%),[5]; Azvudine 0.5 mg/kg p.o.,84.85%
same,T/Cweight (%),[5]; Azvudine 0.5 mg/kg,19.37%
same,IR(%),"[6]; Azvudine single drug, 1 mpk",70.8%
same,TGI(%),"[6]; Azvudine single drug, 1 mpk",70%
same,inhibitory activity on the B-cell lymphoma A20 tumor-bearing mice,[6]; administered alone,certain inhibitory activity
same,TGI,[6]; azvudine 2 mg/kg,88%
